Source: patent US20120035125A1, “FULVIC ACID IN COMBINATION WITH FLUCONAZOLE OR AMPHOTERICIN B FOR THE TREATMENT OF FUNGAL INFECTIONS” (Natracine UK Limited, priority 2009, published 2012)
Values after ≈ are worked out from the molar mass of the structure shown.

Assays:
Aspergillus = details: stated to be toxic to the subject; cited from earlier work
Absidia corymbifera = assay: In vitro susceptibility (MIC, broth microdilution), CHD-FA and amphotericin B; assay type: cell-based; details: Lichtheimia corymbifera
Method: (§1) Each culture was grown on Sabouraud agar at 37° C. for 10 days to ensure purity and to allow spores to mature
(§2) RPMI-1640 (Sigma, Dorset, UK) supplemented to 2% glucose (Sigma), buffered with morpholinopropanesulfonic acid (MOPS), (Sigma) and adjusted to pH 7.0 was used as recommended in the Clinical Laboratory Standards M38A document (Reference method for broth dilution antifungal susceptibility testing of conidium-forming filamentous fungi. Approved standard. Document M38-A 2002a. NCCLS, Wayne, Pa. 2002. NCCLS, Wayne, Pa., USA).
(§3) a) All fungi were cultured in ambient air at 35-37° C. on recovery medium (Sabouraud dextrose agar) for 8-10 days before testing.
(§4) b) Inoculum suspensions were prepared from day 8 to 10 day cultures grown on Sabouraud dextrose agar at 37° C. in vented tissue culture flasks to avoid crosscontamination. Spores were harvested by flooding the surface of the growth with 25 ml of sterile phosphate buffered saline plus 0.05% Tween 80. The spore count was adjusted using a counting chamber.
(§5) c) The inoculum was completely suspended by vigorous shaking on a vortex mixer for 15 s. […] Drug-free and cell-free controls were included. (The RPMI medium used in the plates was prepared at either 2× or 4×the final strength to allow for dilution once the inoculum and diluted CHD-FA was added).
(§6) Sterile plastic, disposable, microtitration plates with 96 flat-bottom wells were used.
(§7) a) Column 1 of the microtitration tray was filled with 100 μL of sterile water containing four times the final drug concentration (16 mg/L amphotericin B).
(§8) b) Columns 2-12 were filled with 50 μL of distilled water
(§9) c) 50 μL amounts were taken from wells in column 1 and diluted two-fold by transferring them to column 2 with a multichannel pipette (±2% coefficient of variation). 50 μL samples were then removed from column 2 and transferred to column 3, and so on through to column 10. The last 50 μL of diluted drug is then discarded. Thus, each well in columns 1-10 will contain 50 μL of water containing four times the final antifungal drug concentrations.
(§10) Stock solutions of CHD-FA were produced containing 4%, 2%, 1%, 0.5% and 0.25% of the native compound.
(§11) 100 μL of the diluted CHD-FA was added to microtitration trays in so that row A contains a final dilution of 2% row B, 1%, row C 0.5%, row D 0.25% row E 0.125% and row F diluent only.
(§12) 50 μL of the diluted spore suspension in 4×RPMI was added to all wells. This produces a well containing 200 μL final volume (made up of 50 μL diluted antifungal, 100 μL diluted CHD-FA or diluent, 50 μL of 4×RPMI containing fungal spores)
(§13) All plates were incubated at 37° C. in air in a darkened incubator.
(§14) Plates were read visually with the endpoint taken as the lowest concentration of drug that inhibited growth by 50% of that of the drug free control.

Aspergillus fumigatus = assay: as above; assay type: cell-based; details: for MIC: Aspergillus fumigatus
Method: as §1, §2, §3, §4, §5, §6, §7, §8, §9, §10, §11, §12, §13, §14

Fusarium solani = assay: as above; assay type: cell-based
Method: as §1, §2, §3, §4, §5, §6, §7, §8, §9, §10, §11, §12, §13, §14

Aspergillus terreus = assay: as above; assay type: cell-based; details: for MIC: Aspergillus terreus
Method: as §1, §2, §3, §4, §5, §6, §7, §8, §9, §10, §11, §12, §13, §14

Aspergillus flavus = assay: as above; assay type: cell-based; details: for MIC: Aspergillus flavus
Method: as §1, §2, §3, §4, §5, §6, §7, §8, §9, §10, §11, §12, §13, §14

**Q.** For `C[C@@H]1[C@H](O)[C@@H](C)/C=C/C=C/C=C/C=C/C=C/C=C/C=C/[C@H](O[C@@H]2O[C@H](C)[C@@H](O)[C@H](N)[C@@H]2O)C[C@@H]2O[C@](O)(C[C@@H](O)C[C@@H](O)[C@H](O)CC[C@@H](O)C[C@@H](O)CC(=O)O[C@H]1C)C[C@H](O)[C@H]2C(=O)O` [Amphotericin B], which “dose required to inhibit Aspergillus” value (Aspergillus) is on record?
**A.** The value was 3 mg/L.

**Q.** What about the MIC (Absidia corymbifera; Absidia isolate 1) of the same molecule?
**A.** Its MIC is 0.25 µg/mL (≈ 0.271 µM).

**Q.** What about the MIC (Absidia corymbifera; Absidia isolate 2) of the same molecule?
**A.** The MIC was 0.06 µg/mL (≈ 0.0649 µM).

**Q.** And the Amphotericin MIC (Aspergillus fumigatus; A. fumigates strain 1, CHD-FA Dilution 0.125)?
**A.** The Amphotericin MIC was 0.06 µg/mL.

**Q.** What about the “Amphotericin MIC” value (Aspergillus fumigatus; A. fumigates strain 1, CHD-FA Dilution 0.25) of the same molecule?
**A.** The value was “No Growth”.

**Q.** What about the “Amphotericin MIC” value (Aspergillus fumigatus; A. fumigates strain 1, CHD-FA Dilution 0.5) of the same molecule?
**A.** The value was “No Growth”.

**Q.** What about the Amphotericin MIC (Aspergillus fumigatus; A. fumigates strain 2, CHD-FA Dilution 0.125) of the same molecule?
**A.** The Amphotericin MIC was 0.125 µg/mL.

**Q.** What about the “Amphotericin MIC” value (Aspergillus fumigatus; A. fumigates strain 2, CHD-FA Dilution 0.25) of the same molecule?
**A.** Its value is “No Growth”.

**Q.** What about the “Amphotericin MIC” value (Aspergillus fumigatus; A. fumigates strain 2, CHD-FA Dilution 0.5) of the same molecule?
**A.** The value was “No Growth”.

**Q.** What about the MIC (Aspergillus fumigatus; A. fumigatus isolate 1) of the same molecule?
**A.** The MIC was 0.5 µg/mL (≈ 0.541 µM).

**Q.** What about the MIC (Aspergillus fumigatus; A. fumigatus isolate 2) of the same molecule?
**A.** Its MIC is 0.25 µg/mL (≈ 0.271 µM).

**Q.** And the “Amphotericin MIC” value (Fusarium solani; Fusarium isolate 2)?
**A.** Its value is 2.0 µg/mL.

**Q.** What about the MIC (Fusarium solani; Fusarium solani, Fusarium isolate 1) of the same molecule?
**A.** The MIC was 2 µg/mL (≈ 2.16 µM).

**Q.** What about the Amphotericin MIC (Aspergillus terreus; A. terreus strain 1, CHD-FA Dilution 0.125) of the same molecule?
**A.** Its Amphotericin MIC is 0.25 µg/mL.

**Q.** What about the “Amphotericin MIC” value (Aspergillus terreus; A. terreus strain 1, CHD-FA Dilution 0.25) of the same molecule?
**A.** Its value is “No Growth”.

**Q.** And the “Amphotericin MIC” value (Aspergillus terreus; A. terreus strain 1, CHD-FA Dilution 0.5)?
**A.** The value was “No Growth”.

**Q.** What about the Amphotericin MIC (Aspergillus terreus; A. terreus strain 2, CHD-FA Dilution 0.125) of the same molecule?
**A.** The Amphotericin MIC was 0.125 µg/mL.

**Q.** What about the “Amphotericin MIC” value (Aspergillus terreus; A. terreus strain 2, CHD-FA Dilution 0.25) of the same molecule?
**A.** Its value is “No Growth”.

**Q.** What about the “Amphotericin MIC” value (Aspergillus terreus; A. terreus strain 2, CHD-FA Dilution 0.5) of the same molecule?
**A.** Its value is “No Growth”.

**Q.** And the MIC (Aspergillus terreus; A. terreus isolate 1)?
**A.** Its MIC is 0.5 µg/mL (≈ 0.541 µM).

**Q.** And the MIC (Aspergillus terreus; A. terreus isolate 2)?
**A.** Its MIC is 1 µg/mL (≈ 1.08 µM).

**Q.** And the Amphotericin MIC (Aspergillus flavus; A. flavus strain 1, CHD-FA Dilution 0.125)?
**A.** Its Amphotericin MIC is > 4 µg/mL.

**Q.** And the “Amphotericin MIC” value (Aspergillus flavus; A. flavus strain 1, CHD-FA Dilution 0.25)?
**A.** Its value is “No Growth”.

**Q.** And the “Amphotericin MIC” value (Aspergillus flavus; A. flavus strain 1, CHD-FA Dilution 0.5)?
**A.** The value was “No Growth”.

**Q.** What about the Amphotericin MIC (Aspergillus flavus; A. flavus strain 2, CHD-FA Dilution 0.125) of the same molecule?
**A.** Its Amphotericin MIC is 0.25 µg/mL.

**Q.** And the “Amphotericin MIC” value (Aspergillus flavus; A. flavus strain 2, CHD-FA Dilution 0.25)?
**A.** Its value is “No Growth”.

**Q.** And the “Amphotericin MIC” value (Aspergillus flavus; A. flavus strain 2, CHD-FA Dilution 0.5)?
**A.** Its value is “No Growth”.

**Q.** What about the MIC (Aspergillus flavus; A. flavus isolate 1) of the same molecule?
**A.** Its MIC is 4 µg/mL (≈ 4.33 µM).

**Q.** And the MIC (Aspergillus flavus; A. flavus isolate 2)?
**A.** The MIC was 0.5 µg/mL (≈ 0.541 µM).
